Results on three compounds are retold here after US4353986A, “Process for producing antibiotic nanaomycin E” (priority 1978, dated 1982).

The nature of data set [1]: acute toxicity (LD50) in mice. The conditions noted are these: mouse, in vivo, iv; interaneveously administered to mice. From the text: (§1) Thus, nanaomycin E is of interest as an antibacterial and therapeutic agent for humans and animals.
Data set [2] concerns Gram-positive bacteria, Trichophyton and Mycoplasma. The conditions noted are these: cited from earlier work.
Data set [3] has as its system Staphylococcus aureus FDA 209P. In words: antibacterial spectrum, MIC by agar dilution. It is filed as cell-based. The conditions noted are these: FDA209P, nutrient agar pH 7.0, 37° C., 20 hours. A general note: Agar dilution tests growth on a series of plates holding different concentrations.
In data set [4] the test system is Staphylococcus aureus FS 1277 (penicillin-resistant). Nature of the data set: antibacterial spectrum, MIC by agar dilution. It is filed as cell-based. The conditions noted are these: nutrient agar pH 7.0, 37° C., 20 hours.
Data set [5] deals with Staphylococcus aureus KB 64 (erythromycin- and tetracycline-resistant). Nature of the data set: antibacterial spectrum, MIC by agar dilution. It is filed as cell-based. The conditions noted are these: nutrient agar pH 7.0, 37° C., 20 hours.
Data set [6] relates to Bacillus subtilis PCI 219. In words: antibacterial spectrum, MIC by agar dilution. It is filed as cell-based. The conditions noted are these: PCI219, nutrient agar pH 7.0, 37° C., 20 hours.
Data set [7] deals with Bacillus cereus T. In words: antibacterial spectrum, MIC by agar dilution. It is filed as cell-based. The conditions noted are these: nutrient agar pH 7.0, 37° C., 20 hours.
In data set [8] the test system is Sarcina lutea PCI 1001. Nature of the data set: antibacterial spectrum, MIC by agar dilution. It is filed as cell-based. The conditions noted are these: Micrococcus luteus, PCI1001, nutrient agar pH 7.0, 37° C., 20 hours.
Data set [9] has as its system Mycobacterium smegmatis ATCC 607. Nature of the data set: antibacterial spectrum, MIC by agar dilution. It is filed as cell-based. The conditions noted are these: Mycolicibacterium smegmatis, ATCC607, nutrient agar pH 7.0, 37° C., 20 hours.
Data set [10] has as its system Proteus vulgaris IFO 3167. In words: antibacterial spectrum, MIC by agar dilution. It is filed as cell-based. The conditions noted are these: IFO3167, nutrient agar pH 7.0, 37° C., 20 hours.
In data set [11] the test system is Nocardia asteroides. In words: antibacterial spectrum, MIC by agar dilution. It is filed as cell-based. The conditions noted are these: nutrient agar pH 7.0, 37° C., 20 hours.
Data set [12] has as its system Escherichia coli NIHJ. In words: antibacterial spectrum, MIC by agar dilution. It is filed as cell-based. The conditions noted are these: nutrient agar pH 7.0, 37° C., 20 hours.
Data set [13] deals with Salmonella typhimurium. Nature of the data set: antibacterial spectrum, MIC by agar dilution. It is filed as cell-based. The conditions noted are these: Salmonella enterica, nutrient agar pH 7.0, 37° C., 20 hours.
The subject of data set [14] is Shigella sonnei E 33. In words: antibacterial spectrum, MIC by agar dilution. The conditions noted are these: E33, nutrient agar pH 7.0, 37° C., 20 hours. It is filed as cell-based. How it is done: (§2) The antibacterial and antifungal spectrum of nanaomycin E is shown in Table 1, in which the minimum inhibitory concentration (MIC) is determined by the agar dilution method. In the case of bacteria, the determination was made after culturing at 37° C. for 20 hours by using a nutrient agar having a pH of 7.0 and, in the cases of fungi, the determination was made after culturing at 27° C. for 70 hours by using a potato-agar having a pH of 6.4.

The subject of data set [15] is Pseudomonas aeruginosa P 3. Nature of the data set: antibacterial spectrum, MIC by agar dilution. It is filed as cell-based. The conditions noted are these: P3, nutrient agar pH 7.0, 37° C., 20 hours.
Data set [16] has as its system Candida albicans. Nature of the data set: antifungal spectrum, MIC by agar dilution. It is filed as cell-based. The conditions noted are these: potato-agar pH 6.4, 27° C., 70 hours.
Data set [17] relates to Saccharomyces sake. Nature of the data set: antifungal spectrum, MIC by agar dilution. It is filed as cell-based. The conditions noted are these: potato-agar pH 6.4, 27° C., 70 hours.
The test system of data set [18] is Piricularia oryzae. In words: microbe, parasite or virus in culture. It is filed as cell-based. The conditions noted are these: pH 6.4; 27° C., 70 hours.
For data set [19], the system named is Aspergillus niger ATCC 6275. In words: antifungal spectrum, MIC by agar dilution. It is filed as cell-based. The conditions noted are these: ATCC6275, potato-agar pH 6.4, 27° C., 70 hours.
For data set [20], the system named is Microsporum gypseum. Nature of the data set: antifungal spectrum, MIC by agar dilution. It is filed as cell-based. The conditions noted are these: Nannizzia gypsea, potato-agar pH 6.4, 27° C., 70 hours.
For data set [21], the system named is Trichophyton interdigitale. In words: antifungal spectrum, MIC by agar dilution. It is filed as cell-based. The conditions noted are these: potato-agar pH 6.4, 27° C., 70 hours.
Data set [22] deals with Trichophyton rubrum. Nature of the data set: antifungal spectrum, MIC by agar dilution. It is filed as cell-based. The conditions noted are these: potato-agar pH 6.4, 27° C., 70 hours.
The test system of data set [23] is Trichophyton mentagrophytes. In words: antifungal spectrum, MIC by agar dilution. It is filed as cell-based. The conditions noted are these: potato-agar pH 6.4, 27° C., 70 hours.
The test system of data set [24] is Trichophyton schoenleini. Nature of the data set: antifungal spectrum, MIC by agar dilution. It is filed as cell-based. The conditions noted are these: potato-agar pH 6.4, 27° C., 70 hours.
Data set [25] concerns Gram-positive bacteria and fungi. Nature of the data set: activity against Gram-positive bacteria and fungi compared with nanaomycin A and D. It is filed as cell-based. As to the method:
as §2, §1

Data set [26] in a line: solubility. It is filed as physicochemical.

In brackets after ≈: the same amount, converted by molar mass.

Broadly, the LD50 is the dose expected to kill half of the subjects tested. A low value points to a more toxic substance. As to `CC1OC2CC(=O)OC2C2=C1C(=O)c1c(O)cccc1C2=O` (stereo not drawn) [nanaomycin D], the 50% lethal dose (LD50) in data set [1] was determined as 1.5 mg/kg.
Regarding `CC1OC(CC(=O)O)CC2=C1C(=O)c1c(O)cccc1C2=O` (stereo not drawn) [nanaomycin A], the 50% lethal dose (LD50) in data set [1] is 46 mg/kg. The antibiotic activity result in data set [2] (against Gram-positive bacteria, Trichophyton and Mycoplasma, known compound) is “having antibiotic activity against Gram-positive bacteria, Trichophyton and Mycoplasma”. The “activity against Gram-positive bacteria, Trichophyton and Mycoplasma” value in [2] (among nanaomycin-type compounds) is listed as “exhibits the strongest activity”.
For the compound `CC1OC(CC(=O)O)CC23OC12C(=O)c1c(O)cccc1C3=O` (stereo not drawn) [nanaomycin E], the MIC in data set [3] came out at 25 µg/mL (≈ 78.5 µM); in data set [4], 25 µg/mL (≈ 78.5 µM); in data set [5] it was 25 µg/mL (≈ 78.5 µM); in [6], 12.5 µg/mL (≈ 39.3 µM); in [7] it was 12.5 µg/mL (≈ 39.3 µM); in data set [8], 25 µg/mL (≈ 78.5 µM). Also, the MIC in data set [9] is more than 100 µg/mL; in data set [10], 25 µg/mL (≈ 78.5 µM); in data set [11] it was more than 100 µg/mL; in data set [12], 50 µg/mL (≈ 157 µM); in data set [13], more than 100 µg/mL; in [14], more than 100 µg/mL. For the same compound, the MIC is more than 100 µg/mL in [15]; more than 100 µg/mL in data set [16]; more than 100 µg/mL in data set [17]; 100 µg/mL (≈ 314 µM) in [18]; more than 100 µg/mL in data set [19]; 100 µg/mL (≈ 314 µM) in data set [20]. Also, the MIC in data set [21], in data set [22], in data set [23] and in data set [24] was 50 µg/mL (≈ 157 µM) each time. The LD50 in data set [1] was 60 mg/kg. Besides, the “activity against Gram-positive bacteria and fungi relative to nanaomycin A and D” value in [25] is “approximately equal to or somewhat weaker than the activities of nanaomycin A and D”. The Solubility result in data set [26] (in methanol, ethanol, ethyl acetate, butyl acetate etc.) was “Easily soluble”; in data set [26] (in n-hexane, petroleum ether etc.) it was “Insoluble”.
